Data from paper PMC7600264, “Quasi-Irreversible Inhibition of CYP2D6 by Berberine” (Pharmaceutics, 2020).
pIC50, pKi: −log10 of the molar value. Like-named read-outs stand apart in the source and are kept apart here. One block for each compound: values may come before it.

Columns and labels:
[1] = molecular target: T1, CYP2D6 (Homo sapiens, UniProt P10635); experiment: in vitro; conditions: pH 7.4
Protocol: (§1) Pre-incubation was performed in pooled HLM (0.2 mg/mL) added with BBR, THB, TFD, or DMB, or rhCYP2D6 (10 pmol/mL) added with BBR, with or without NADPH (1 mM) in phosphate buffer (0.1 M; pH 7.4) for 30 min. Then, the CYP2D6 substrate (5 µM of dextromethorphan) and NADPH (1 mM) were added to the mixture and incubated for another 10 min. All incubations were carried out at 37 °C in a shaking water bath (100 rpm) using eight-well tube strips placed in an 8 × 12 rack, where the final volume of each reaction mixture was 200 µL. […] The enzyme reactions were quenched by adding an aliquot (200 µL) of ice-cold ACN containing CBZ (100 nM) as an IS. The samples were centrifuged, and the concentration of CYP2D6 metabolite (i.e., dextrorphan, produced by O-demethylation of dextromethorphan) in supernatants were analyzed using the LC-MS/MS method described in Section 2.2.

[2] = molecular target: recombinant human CYP2D6 (rhCYP2D6) (Homo sapiens, UniProt P10635); experiment: Metabolism-dependent CYP2D6 inhibition assay (IC50 shift) using rhCYP2D6
Protocol: as §1

[3] = design: method as in PMID 19589224, PMID 12562448, PMID 27283523; conditions: clinical PK studies; single administration of BBR; highly variable; cited from earlier work
[4] = molecular target: T1, CYP2D6; experiment: Kinetic parameters for MDI of CYP2D6 in pooled HLM
Protocol: BBR (0–16 μM) was incubated with pooled HLM (0.2 mg/mL), NADPH (1 mM), and dextromethorphan (5 µM) in phosphate buffer (0.1 M; pH 7.4) for various incubation time periods (0–30 min). The apparent inactivation rate constants (kobs) at various BBR concentrations were estimated by fitting first-order kinetics to the relative enzyme activity vs. incubation time profiles. The rate of enzyme inactivation (kinact) and the inhibition constant (KI) were determined by fitting the following Equation (1) to the kobs values at various inhibitor concentrations Equation (1) [31]:(1) 1/kobs=KI/kinact×1/I+1/kinact

[5] = test system: microsomal metabolism of nebivolol; experiment: BBR-nebivolol interaction in pooled HLM; assay type: in vitro ADME, human; conditions: nebivolol 1 µM; pooled HLM 1 mg/mL; BBR 0, 1, 3, 10 µM; 60 min
Protocol: The HDI between BBR and nebivolol was assessed using pooled HLM, where nebivolol (1 μM) was incubated with HLM (1 mg/mL) and NADPH-generating system (see Section 2.6) in phosphate buffer (0.1 M; pH 7.4) with BBR at various concentrations (0, 1, 3, and 10 μM). The mixture (total volume of 200 µL) was incubated at 37 °C for 60 min in a shaking water bath (100 rpm), following a 5 min of pre-incubation at 37 °C. […] The mass transitions of nebivolol and CBZ were m/z 406 to 151 and m/z 237 to 194, respectively.

[6] = molecular target: T1, CYP2D6; design: method as in PMID 25145883; conditions: HLM; previous study; cited from earlier work
[7] = molecular target: T1, CYP2D6; conditions: microsomes
[8] = assay type: in vitro ADME, human; conditions: precursor 1 µM in pooled HLM with NADPH-generating system, mean ± SD
Protocol: Table 3. Putative M1 metabolite produced in pooled HLM incubated with thalifendine or
Precursor molecules Incubation time (min)a M1 signal at m/z 310 (103 × cps)b
Demethyleneberberine 0 107 ± 3
a Thalifendine or demethyleneberberine (1 μM) was incubated with pooled HLM in the presence of
NADPH-generating system; b Each value represents the mean ± SD for three separate samples. […]

T1 sequence (P10635 whole entry): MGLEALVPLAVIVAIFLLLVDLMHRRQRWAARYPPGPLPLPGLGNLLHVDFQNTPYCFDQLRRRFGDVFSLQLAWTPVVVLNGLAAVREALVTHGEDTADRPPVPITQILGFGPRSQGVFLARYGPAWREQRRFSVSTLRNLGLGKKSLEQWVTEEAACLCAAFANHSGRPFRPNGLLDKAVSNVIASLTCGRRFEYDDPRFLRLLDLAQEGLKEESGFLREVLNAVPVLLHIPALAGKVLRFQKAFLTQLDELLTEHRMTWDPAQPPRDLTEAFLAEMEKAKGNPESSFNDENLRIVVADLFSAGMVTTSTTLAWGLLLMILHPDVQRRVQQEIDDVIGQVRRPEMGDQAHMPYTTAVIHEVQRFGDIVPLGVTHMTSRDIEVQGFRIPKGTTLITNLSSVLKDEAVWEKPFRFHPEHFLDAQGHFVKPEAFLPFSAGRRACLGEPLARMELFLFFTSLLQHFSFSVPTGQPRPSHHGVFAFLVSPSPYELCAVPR
Chain of recombinant human CYP2D6 (rhCYP2D6) (P10635 whole entry): as above

SMILES: COc1ccc2cc3[n+](cc2c1OC)CCc1cc2c(cc1-3)OCO2 [BBR, berberine]
IC50 shift at 10 min [1]: ~7.5 | pIC50 ([2]; IC50 against rhCYP2D6, pre-incubation with NADPH, 30 min pre-incubation with NADPH): 5.76 | pIC50 ([2]; IC50 against rhCYP2D6, pre-incubation without NADPH, 30 min pre-incubation in the absence of NADPH): 5.27 | Maximum plasma concentration [3]: less than 1 nM to more than 1 µM | pKi [4]: 5.37 | kinact ([4]; human, pooled human liver microsomes, pH 7.4, probe dextromethorphan (5 µM)): 0.000417 s⁻¹ | Effect on microsomal clearance of nebivolol [5]: significantly inhibited | pIC50 [6]: ~4.63 | Mode of CYP2D6 inhibition [7]: quasi-irreversible

M1 signal at m/z 310 ([8]; incubation time 0 min): 107 ± 3 103 × cps | M1 signal at m/z 310 ([8]; incubation time 30 min): 432 ± 27 103 × cps
SMILES: COc1ccc2cc3[n+](cc2c1OC)CCc1cc(O)c(O)cc1-3 [DMB, demethyleneberberine]
